Test: Displacement of [3H]Ro151788 from GABA-A receptor in Wistar rat cerebellar membrane after 1 hr by liquid scintillation counting
Type: cell membranes, Cerebellum

Ki [pM]	Compound
700	O=C(NCCF)c1c[nH]c2ccc(Cc3ccccc3)cc2c1=O
130	O=C(NCCCF)c1c[nH]c2ccc(Cc3ccccc3)cc2c1=O
